{
  "source": "paper PMC3026871",
  "about": "(Cancer chemotherapy and pharmacology, 2010)",
  "key": {"[1]": {"test_system": "patients with advanced solid tumors", "assay": "Phase 1 safety: drug-related adverse events", "assay_type": "in vivo"}, "[2]": {"test_system": "patients with advanced solid tumors", "assay": "Clinical response", "assay_type": "in vivo, human", "details": "RECIST"}, "[3]": {"details": "ref Data on file, Millennium; cited from earlier work"}, "[4]": {"test_system": "alpha-1 subunit of the GABA-A receptor", "details": "ref Data on file, Millennium; cited from earlier work"}, "[5]": {"test_system": "human tumor xenografts", "details": "cited from earlier work"}, "[6]": {"details": "ref Data on file, Millennium, cited from earlier work"}, "[7]": {"test_system": "dogs", "details": "the most sensitive species; cited from earlier work"}, "[8]": {"assay": "Plasma pharmacokinetics in patients", "details": "for Cmin, Mean (SD): 6 hours after the second dose"}, "[9]": {"details": "QID-7D 25 mg, Day 7, Dose 2, steady state, n=6"}, "[10]": {"details": "QID-7D 35 mg, Day 7, Dose 2, steady state, n=3"}, "[11]": {"details": "QID-7D 45 mg, Day 7, Dose 2, steady state, n=3"}, "[12]": {"details": "QID-7D 55 mg, Day 7, Dose 2, steady state, n=4"}},
  "note": "Marks after values point to notes of the source that are not given here.",
  "data": [
    {"smiles": "O=C(O)c1ccc(Nc2ncc3c(n2)-c2ccc(Cl)cc2C(c2c(F)cccc2F)=NC3)cc1", "note": "[MLN8054]", "values": [
      {"measurement": "Any drug-related adverse event, Any Grade", "setting": "[1]; human, in vivo", "value": "55 (90)"},
      {"measurement": "Any drug-related adverse event, Grade 3", "setting": "[1]; human, in vivo", "value": "13 (21)"},
      {"measurement": "Drug-related Abnormal coordination, Any Grade", "setting": "[1]; human, in vivo", "value": "5 (8)"},
      {"measurement": "Drug-related Abnormal coordination, Grade 3", "setting": "[1]; human, in vivo", "value": "1 (2)"},
      {"measurement": "Drug-related Anorexia, Any Grade", "setting": "[1]; human, in vivo", "value": "8 (13)"},
      {"measurement": "Drug-related Anorexia, Grade 3", "setting": "[1]; human, in vivo", "value": "0 (0)"},
      {"measurement": "Drug-related Asthenia, Any Grade", "setting": "[1]; human, in vivo", "value": "6 (10)"},
      {"measurement": "Drug-related Asthenia, Grade 3", "setting": "[1]; human, in vivo", "value": "1 (2)"},
      {"measurement": "Drug-related Confusion, Any Grade", "setting": "[1]; human, in vivo", "value": "11 (18)"},
      {"measurement": "Drug-related Confusion, Grade 3", "setting": "[1]; human, in vivo", "value": "4 (7)"},
      {"measurement": "Drug-related Dizziness, Any Grade", "setting": "[1]; human, in vivo", "value": "7 (11)"},
      {"measurement": "Drug-related Dizziness, Grade 3", "setting": "[1]; human, in vivo", "value": "1 (2)"},
      {"measurement": "Drug-related Fatigue, Any Grade", "setting": "[1]; human, in vivo", "value": "15 (25)"},
      {"measurement": "Drug-related Fatigue, Grade 3", "setting": "[1]; human, in vivo", "value": "1 (2)"},
      {"measurement": "Drug-related Hallucination, Any Grade", "setting": "[1]; human, in vivo", "value": "1 (2)"},
      {"measurement": "Drug-related Hallucination, Grade 3", "setting": "[1]; human, in vivo", "value": "1 (2)"},
      {"measurement": "Drug-related Hyperbilirubinemia, Any Grade", "setting": "[1]; human, in vivo", "value": "3 (5)"},
      {"measurement": "Drug-related Hyperbilirubinemia, Grade 3", "setting": "[1]; human, in vivo", "value": "1 (2)"},
      {"measurement": "Drug-related Hyperglycemia, Any Grade", "setting": "[1]; human, in vivo", "value": "5 (8)"},
      {"measurement": "Drug-related Hyperglycemia, Grade 3", "setting": "[1]; human, in vivo", "value": "1 (2)"},
      {"measurement": "Drug-related Increased blood alkaline phosphatase, Any Grade", "setting": "[1]; human, in vivo", "value": "4 (7)"},
      {"measurement": "Drug-related Increased blood alkaline phosphatase, Grade 3", "setting": "[1]; human, in vivo", "value": "1 (2)"},
      {"measurement": "Drug-related Muscular weakness, Any Grade", "setting": "[1]; human, in vivo", "value": "5 (8)"},
      {"measurement": "Drug-related Muscular weakness, Grade 3", "setting": "[1]; human, in vivo", "value": "1 (2)"},
      {"measurement": "Drug-related Nausea, Any Grade", "setting": "[1]; human, in vivo", "value": "10 (16)"},
      {"measurement": "Drug-related Nausea, Grade 3", "setting": "[1]; human, in vivo", "value": "0 (0)"},
      {"measurement": "Drug-related Peripheral motor neuropathy, Any Grade", "setting": "[1]; human, in vivo", "value": "1 (2)"},
      {"measurement": "Drug-related Peripheral motor neuropathy, Grade 3", "setting": "[1]; human, in vivo", "value": "1 (2)"},
      {"measurement": "Drug-related Somnolence, Any Grade", "setting": "[1]; human, in vivo", "value": "47 (77)"},
      {"measurement": "Drug-related Somnolence, Grade 3", "setting": "[1]; human, in vivo", "value": "11(18)"},
      {"measurement": "Drug-related Vomiting, Any Grade", "setting": "[1]; human, in vivo", "value": "6 (10)"},
      {"measurement": "Drug-related Vomiting, Grade 3", "setting": "[1]; human, in vivo", "value": "0 (0)"},
      {"measurement": "drug-related grade 4 or 5 AE", "setting": "[1]; human, in vivo", "value": "no patient had a drug-related grade 4 or 5 AE"},
      {"measurement": "grade ≥ 3 mucositis or myelosuppression", "setting": "[1]; human, in vivo", "value": "No dose studied was associated with grade ≥ 3 mucositis or myelosuppression"},
      {"measurement": "patients who died within 21 days of the last dose", "setting": "[1]; nine patients, none of the deaths considered drug-related", "value": 15, "unit": "%"},
      {"measurement": "patients with stable disease for greater than 6 cycles", "setting": "[2]; 3 patients", "value": 5, "unit": "%"},
      {"measurement": "complete or partial responses", "setting": "[2]; 5–80 mg per day for 7, 14 or 21 days", "value": "No complete or partial responses were seen"},
      {"measurement": "patients with stable disease for at least 4 cycles", "setting": "[2]; nine patients, all cohorts", "value": 15, "unit": "%"},
      {"measurement": "dose-limiting toxicities (DLTs) in preclinical toxicology studies", "setting": "[3]", "value": "myelosuppression and gastrointestinal toxicity"},
      {"measurement": "binding to the alpha-1 subunit of the GABA-A receptor", "setting": "[4]", "value": "high-affinity binding"},
      {"measurement": "antitumor activity in xenograft models", "setting": "[5]", "value": "antitumor activity in human tumor xenografts including colon, prostate, and lung cancer models"},
      {"measurement": "plasma concentration whose maintenance is required for efficacy", "setting": "[5]; maintained for 8–12 hours per day, human tumor xenografts grown in mice", "value": "~ 2000 nM"},
      {"measurement": "major phase 1 biotransformation pathway", "setting": "[6]; human liver S9 fractions", "value": "Hydroxylation of the azepine moiety"},
      {"measurement": "predominant mechanism of biotransformation", "setting": "[6]; human liver S9 fractions", "value": "Glucuronidation of the carboxylate moiety of MLN8054 to an acyl glucuronide"},
      {"measurement": "enzymes mediating biotransformation", "setting": "[6]", "value": "Glucuronidation was mediated by UGT1 and UGT2 and hydroxylation by CYP1A2, 2C9, 2C19, 2D6, and 3A4"},
      {"measurement": "highest non-severely toxic dose", "setting": "[7]", "value": 20, "unit": "mg/m^2/day"},
      {"measurement": "dose proportionality of AUC0-24 hr and Cmax", "setting": "[8]; QD dosing", "value": "roughly dose-proportional"},
      {"measurement": "Peak-to-Trough Ratio (Cmax/Cmin)", "setting": "[8]; QD dosing, all dose levels", "value": "approximately 5"},
      {"measurement": "Geometric Mean Peak-to-Trough Ratio (Cmax/Cmin)", "setting": "[8]; QD-7D 5 mg, Day 7, steady state, n=4", "value": 4.99},
      {"measurement": "Geometric Mean Peak-to-Trough Ratio (Cmax/Cmin)", "setting": "[8]; QD-7D 10 mg, Day 7, steady state, n=4", "value": 5.10},
      {"measurement": "Geometric Mean Peak-to-Trough Ratio (Cmax/Cmin)", "setting": "[8]; QD-7D 20 mg, Day 7, steady state, n=3", "value": 5.09},
      {"measurement": "Geometric Mean Peak-to-Trough Ratio (Cmax/Cmin)", "setting": "[8]; QD-7D 30 mg, Day 7, steady state, n=6", "value": 4.72},
      {"measurement": "Peak-to-Trough Ratio (Cmax/Cmin)", "setting": "[8]; QD-7D 40 mg, Day 7, steady state, individual data, n=1", "value": "6.59 ^†"},
      {"measurement": "Geometric Mean Peak-to-Trough Ratio (Cmax/Cmin)", "setting": "[8]; [9]", "value": 1.58},
      {"measurement": "Cmin, Mean (SD)", "setting": "[8]; [9]", "value": "720 (359) nM"},
      {"measurement": "Geometric Mean Peak-to-Trough Ratio (Cmax/Cmin)", "setting": "[8]; [10]", "value": 1.32},
      {"measurement": "Cmin, Mean (SD)", "setting": "[8]; [10]", "value": "1464 (301) nM"},
      {"measurement": "Geometric Mean Peak-to-Trough Ratio (Cmax/Cmin)", "setting": "[8]; [11]", "value": 1.45},
      {"measurement": "Cmin, Mean (SD)", "setting": "[8]; [11]", "value": "1139 (803) nM"},
      {"measurement": "Geometric Mean Peak-to-Trough Ratio (Cmax/Cmin)", "setting": "[8]; [12]", "value": 1.44},
      {"measurement": "Cmin, Mean (SD)", "setting": "[8]; [12]", "value": "1802 (846) nM"},
      {"measurement": "Geometric Mean Peak-to-Trough Ratio (Cmax/Cmin)", "setting": "[8]; QID/M-7D 55 mg, Day 7, Dose 2, steady state, n=3", "value": 1.81},
      {"measurement": "Geometric Mean Peak-to-Trough Ratio (Cmax/Cmin)", "setting": "[8]; QID/M-7D 60 mg, Day 7, Dose 2, steady state, n=6", "value": 1.80},
      {"measurement": "Geometric Mean Peak-to-Trough Ratio (Cmax/Cmin)", "setting": "[8]; QID/M-7D 70 mg, Day 7, Dose 2, steady state, n=3", "value": 1.65},
      {"measurement": "Geometric Mean Peak-to-Trough Ratio (Cmax/Cmin)", "setting": "[8]; QID/M-7D 80 mg, Day 7, Dose 2, steady state, n=3", "value": 1.35},
      {"measurement": "Geometric Mean Peak-to-Trough Ratio (Cmax/Cmin)", "setting": "[8]; QID/M-14D 60 mg, Day 14, Dose 2, steady state, n=3", "value": 1.29},
      {"measurement": "Peak-to-Trough Ratio (Cmax/Cmin)", "setting": "[8]; QID/M-21D 60 mg, Day 21, Dose 2, steady state, individual data, n=1", "value": "1.59 ^†"}
    ]}
  ]
}
